Results reported in patent EP3305290B1, “[…] […] FOR USE IN THE TREATMENT OF VIRAL INFECTIONS” (priority 2016, dated 2018).
Entries after “also recorded” stand apart in the source; their conditions may differ. Like-named read-outs stand apart in the source and are kept apart here.

Key:
Huh-7 cells [1] = test: Cell morphology of Huh-7 cells by light microscopy; type: cell-based, human; settings: 10 nM, three days
poliovirus [2] = test: microbe, parasite or virus in culture; type: cell-based, Poliovirus Typ 1 (strain Mahoney; PV)
EBOV [3] = type: cell-based, Zaire Ebola virus (EBOV) strain Mayinga
[4] = system: proto-oncogenic kinase PIM1; test: Westernblot of PIM1 in primary macrophages; type: cell-based, human
[5] = Cell toxicity (MTT) in hAEC; settings: human
EBOV [6] = type: cell-based, Zaire Ebola virus (EBOV) strain Mayinga; remark: listed apart in the source
5'-UTRs of Ebola mRNAs = test: cells; type: cell-based, EBOV; settings: for inhibition at 0.01 µM: Zaire ebolavirus
MERS-CoV [7] = test: microbe, parasite or virus in culture; type: cell-based, MERS-CoV (EMC/2012)
viral dsRNA and nsp8 = test: Immunofluorescence of replication/transcription complexes in HCoV-229E infected MRC-5 cells; type: cell-based; settings: MOI 3, 12 h p.i.
HCoV-229E [8] = test: microbe, parasite or virus in culture; type: cell-based, Human Coronavirus 229E (HCoV-229E); settings: Human coronavirus 229E
HCoV-229E [9] = test: microbe, parasite or virus in culture; type: cell-based, Human Coronavirus 229E (HCoV-229E)
poliovirus [10] = test: microbe, parasite or virus in culture; type: cell-based, Poliovirus Typ 1 (strain Mahoney; PV); settings: Enterovirus C
Rhinovirus 1A = test: microbe, parasite or virus in culture; type: cell-based, human Rhinovirus 1A (HRV1A); settings: for EC50: Enterovirus, HeLa
Huh-7 cells [11] = test: WST-1 proliferation assay of Huh-7 cells
rhinovirus A1 = test: organism not typed; type: cell-based, human Rhinovirus 1A (HRV1A); settings: for EC50: MRC5, 24 h
in vitro = settings: human
[12] = system: HCoV-229E proteins N and nsp8; test: Westernblot analysis, Method 2, HCoV-229E proteins N and nsp8; type: cell-based
5'-UTR from MERS-CoV = type: cell-based
primary macrophages = test: WST-1 viability assay of primary macrophages
5'-UTR from HCoV-229E = type: cell-based
Coronaviruses = test: organism not typed; type: cell-based; settings: MRC5, read-out: EC50-values
MERS-CoV [13] = test: microbe, parasite or virus in culture; type: cell-based, MERS-CoV (EMC/2012); remark: listed apart in the source
[14] = Cell toxicity (MTT) in PBMCs; settings: human
EBOV NP protein = type: cell-based, Zaire Ebola virus (EBOV) strain Mayinga
[15] = system: 5'-UTRs of all seven EBOV mRNAs; type: cell-based
[16] = system: EBOV proteins VP40, NP and GP; type: cell-based, Zaire Ebola virus (EBOV) strain Mayinga

COC(=O)[C@H]1[C@@H](O)[C@@]2(O)c3c(OC)cc(O[C@@H]4O[C@@H]([C@H](O)CO)CO[C@H]4OC)cc3O[C@@]2(c2ccc(OC)cc2)[C@@H]1c1ccccc1 [Silvestrol]
cell morphology (Huh-7 cells [1]): without changing cell morphology | fold less sensitive / less efficient compared to MERS-CoV and HCoV-229E (poliovirus [2]): about 10 fold | EC50 (poliovirus [2]; Enterovirus C, MRC5, 24 h): 20 nM | reduction of viral titers (EBOV [3]): up to two orders of magnitude | PIM1 levels ([4]; primary macrophages, 10 nM): strongly decreased levels | duration of inhibitory effect on PIM1 levels ([4]; single dose 10 nM, macrophages): at least 5 days | cellular β-Actin levels ([4]; single dose 10 nM, macrophages, up to 5 days): without affecting cellular β-Actin levels | CC50 at 48 h [5]: 500 nM | antiviral effect (EBOV titer) (EBOV [6]): comparable antiviral effect | inhibition of EBOV infection (viral titers) (EBOV [6]): substantially inhibits EBOV infection; also recorded: inhibits viral propagation efficiently; also recorded: strongly inhibits EBOV replication | effect on IRES-driven renilla luciferase activity (5'-UTRs of Ebola mRNAs): no obvious effect | inhibition at 0.01 µM (5'-UTRs of Ebola mRNAs; HepG2, read-out: inhibitory effect on firefly luciferase activity): 80% | inhibition at 0.01 µM (5'-UTRs of Ebola mRNAs; HepG2, read-out: inhibitory effect on luciferase levels): 30% | selectivity index (CC50/EC50) (MERS-CoV [7]): 1538 | EC50 (MERS-CoV [7]; Middle East respiratory syndrome-related coronavirus, MRC5, 24 h): 1.3 nM | levels of double-stranded viral RNA and nsp8 (RTC markers) (viral dsRNA and nsp8; 10 nM): drop down | levels of double-stranded viral RNA and nsp8 (RTC markers) (viral dsRNA and nsp8; 100 nM): nearly no viral dsRNA or nsp8 can be detected | EC50 (HCoV-229E [8]; Huh-7): 40 nM | EC50 (HCoV-229E [8]; Huh-7, 24 h, read-out: effective dose (EC50)): 40 nM | EC50 fold lower in MRC-5 cells compared to infected Huh-7 cells (HCoV-229E [9]): about 10 fold | selectivity index (CC50/EC50) (HCoV-229E [9]): 566 | EC50 (HCoV-229E [9]; Human coronavirus 229E, MRC5, 24 h): 3 nM | EC50 (poliovirus [10]; Vero C1008): ~100 nM | EC50 (poliovirus [10]; Vero C1008, 24 h, read-out: effective dose (EC50)): 100 nM | EC50 fold higher compared to HCoV-229E in Huh-7 (Rhinovirus 1A): about 10 fold | EC50 (Rhinovirus 1A): 400 nM | EC50 (Rhinovirus 1A; 24 h, read-out: effective dose (EC50)): 400 nM | effect on proliferation of Huh-7 cells (Huh-7 cells [11]; higher concentrations up to 100 nM, compared to DMSO control): weakly affected; also recorded: weak effects on proliferation | effect on proliferation of Huh-7 cells (Huh-7 cells [11]; up to 10 nM Silvestrol, WST-1, 48 h): no obvious effects on proliferation; also recorded: No effect of Silvestrol on proliferation | fold less sensitive compared to the analyzed coronaviruses (rhinovirus A1): about 100 fold | EC50 (rhinovirus A1): 100 nM | EC50 (rhinovirus A1; Rhinovirus A): 100 nM | CC50 (in vitro; CC50): 1700 nM | CC50 (in vitro; CC50 / cell toxicity): > 1000 nM | level of N-protein ([12]; HCoV-229E infected primary MRC-5 cells, 10 nM, 12 h and 48 h p.i.): disappears | HCoV-229E proteins N and nsp8 ([12]; Huh-7 infected cells, 10 nM): detectable | N-protein ([12]; Huh-7 infected cells, 100 nM): only very low amounts | nsp8 ([12]; Huh-7 infected cells, 100 nM): completely absent | decrease of luciferase activity (5'-UTR from MERS-CoV): ~40% | IC50 (primary macrophages; Homo sapiens, Primary macrophage, 72 h, read-out: IC50 (WST-1 viability assay), primary macrophages, 0.1 nM - 10 µM, 72 h): ~96 nM | concentration with essentially no sign of toxicity (primary macrophages; primary macrophages, WST-1): at least 50 nM | decrease of luciferase activity (5'-UTR from HCoV-229E): ~40% | EC50 (Coronaviruses): 1 to 3 nM | selectivity index (MERS-CoV [13]): 166 | EC50 (MERS-CoV [13]; Middle East respiratory syndrome-related coronavirus, Epithelial cell, 48 h): 3 nM | CC50 [14]: 400 nM | expression level of the EBOV NP protein (EBOV NP protein): potent downregulation; also recorded: strongly decreased levels | inhibition of firefly luciferase activity [15]: 23-33% | reduction of firefly luciferase activity [15]: no significant reduction | EBOV protein VP40 levels [16]: strong reduction of VP40 levels; also recorded: inhibits the expression | EBOV proteins NP and GP levels [16]: Downregulation | cellular protein tubulin level [16]: not affected
